In patent US12281149B2, “Modulators of G-protein coupled receptors” (priority 2021, dated 2025):
*1 amine or outer side, *2 acyl side, *3 side chain or, on linkers, in order; H or OH if unused. Where a SMILES comes first, the peptide text is derived from it. Side-chain parts run from the residue outwards. [ ]: non-standard residue; d: D form. The star is where a group is joined. Isobutyryl(2-(3-CN-5-F-Ph)) = CC(C)(C(=O)*)c1cc(F)cc(C#N)c1; C20 diacid = O=C(O)CCCCCCCCCCCCCCCCCCC(=O)*; γGlu = O=C(O)[C@H](CCC(=O)[*:2])N[*:1]; X58 = Cc1cc(F)cc(C(C)(C)C(=O)*)c1; X70 = CC[C@H](CN[*:1])C(=O)[*:2]; X13 = CC(C)(C(=O)*)c1cccc(F)c1F; X37 = CC(C)(C(=O)*)c1cc(F)ccc1F; AEEA = NCCOCCOCC(=O)O; Aib = CC(C)(N)C(=O)O; βAla = NCCC(=O)O

Assays:
Assay type in all cases: cell-based
GLP-1 receptor [1] = molecular target: T1, GLP-1 receptor (Homo sapiens, UniProt P43220); assay: HitHunter cAMP assay, GLP-1 receptor; settings: for EC50: CHO cells stably expressing human GLP-1 receptor, cAMP accumulation, 30 min, read-out: EC50 GLP-1R; for Emax: CHO cells, cAMP, normalized to maximum signal from GLP-1 (high) and DMSO (low), read-out: Emax GLP-1R
GIP receptor [2] = molecular target: T2, GIP receptor (Homo sapiens, UniProt P48546); assay: HitHunter cAMP assay, GIP receptor; settings: for EC50: CHO cells stably expressing GIP receptor, cAMP accumulation, 30 min, read-out: EC50 GIP-1R; for Emax: CHO cells, cAMP, normalized to maximum signal from GIP (high) and DMSO (low), read-out: Emax GIP-1R
T2 sequence (P48546 22-466): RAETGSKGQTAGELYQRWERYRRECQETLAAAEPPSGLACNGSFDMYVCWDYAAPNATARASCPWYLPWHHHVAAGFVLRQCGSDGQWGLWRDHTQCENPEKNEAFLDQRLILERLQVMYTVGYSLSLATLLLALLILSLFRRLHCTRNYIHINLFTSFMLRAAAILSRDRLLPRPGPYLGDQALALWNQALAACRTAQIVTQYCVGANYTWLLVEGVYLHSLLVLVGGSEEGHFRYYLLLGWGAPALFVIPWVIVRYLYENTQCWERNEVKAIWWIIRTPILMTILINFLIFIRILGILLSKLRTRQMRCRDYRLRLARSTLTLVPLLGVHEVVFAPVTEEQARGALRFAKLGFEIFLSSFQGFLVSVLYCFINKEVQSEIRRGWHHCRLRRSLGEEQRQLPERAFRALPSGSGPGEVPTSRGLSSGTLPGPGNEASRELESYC
Method: CAMP accumulation was measured in Chinese hamster ovary (CHO) cells stably expressing the human GLP-1 receptor or GIP receptor using the HitHunter CAMP Assay for Small Molecules Kit (Eurofins). Briefly, cells were grown in Ham's F12 Nutrient Mix with 10% FBS and lifted with Cell dissociation buffer, Enzyme free, PBS based (ThermoFisher). Cells were pelleted and resuspended in Hank's buffered saline solution with 10 mM Hepes and 625 μM 3-isobutyl-1-methylxanthine. The antibody reagent was then added to cells at a 1:2 ratio and 5 μL of mixture was seeded in 384-well small volume white assay plates, at 10,000 cells/well. Cells were then treated with 50 nl compound in DMSO using an ECHO 550 acoustic dispenser (Labcyte) in a 20-point dose response format in triplicate for 30 min. Cells were the lysed and detection reagents added according to the manufacturer's protocol. After overnight incubation, luminescence was measured using a Perkin Elmer Envision plate reader. Raw data was normalized to the maximum signal from GLP-1 or GIP (high) and DMSO (low). Dose response curves were analyzed using GraphPad Prism 9.0.

GIP receptor [3] = molecular target: T2, GIP receptor; assay: PathHunter β-arrestin assay, GIP receptor; set-up: host or cells: PathHunter CHO-K1 GIPR β-Arrestin Cell Line; settings: β-arrestin-2 recruitment, PathHunter CHO-K1 GIPR β-Arrestin Cell Line, 90 min at 37° C.; normalized to GIP; read-out: GIPR β Arrestin EC50
GLP-1 receptor [4] = molecular target: T1, GLP-1 receptor; assay: PathHunter β-arrestin assay, GLP-1 receptor; set-up: host or cells: PathHunter CHO-K1 GLP1R β-Arrestin Cell Line; settings: β-arrestin-2 recruitment, PathHunter CHO-K1 GLP1R β-Arrestin Cell Line, 90 min at 37° C.; normalized to GLP-1; read-out: GLP-1R β Arrestin EC50
Method: β-arrestin-2 recruitment for GLP-1 receptor or GIP receptor was measured using the DiscoverX PathHunter Detection Kit and PathHunter® CHO-K1 GLPIR β-Arrestin Cell Line or PathHunter® CHO-K1 GIPR β-Arrestin Cell Line, respectively). Briefly, cells were grown in Ham's F12 Nutrient Mix with 10% FBS and lifted with Cell dissociation buffer, Enzyme free, PBS based (ThermoFisher). Harvested cells were pelleted and resuspended in Assay Complete Cell Plating Reagent 2 and 5000 cells per well were plated in tissue culture treated 384-well small volume white assay plates. Plates were then incubated at 37° C. and 5% CO2 overnight. The media was then replaced with fresh Assay Complete Cell Plating Reagent 2. Cells were then treated with 10 nl compound in DMSO using an ECHO 550 acoustic dispenser (Labcyte) in a 20-point dose response format in duplicate for 90 min at 37° C. The assay was then completed according to the manufacturer's instructions. Luminescence was measured using a Perkin Elmer Envision plate reader. Raw data was normalized to the maximum signal from GLP-1 or GIP (high) and DMSO (low). Dose response curves were analyzed using GraphPad Prism 9.0.

T1 sequence (P43220 24-463): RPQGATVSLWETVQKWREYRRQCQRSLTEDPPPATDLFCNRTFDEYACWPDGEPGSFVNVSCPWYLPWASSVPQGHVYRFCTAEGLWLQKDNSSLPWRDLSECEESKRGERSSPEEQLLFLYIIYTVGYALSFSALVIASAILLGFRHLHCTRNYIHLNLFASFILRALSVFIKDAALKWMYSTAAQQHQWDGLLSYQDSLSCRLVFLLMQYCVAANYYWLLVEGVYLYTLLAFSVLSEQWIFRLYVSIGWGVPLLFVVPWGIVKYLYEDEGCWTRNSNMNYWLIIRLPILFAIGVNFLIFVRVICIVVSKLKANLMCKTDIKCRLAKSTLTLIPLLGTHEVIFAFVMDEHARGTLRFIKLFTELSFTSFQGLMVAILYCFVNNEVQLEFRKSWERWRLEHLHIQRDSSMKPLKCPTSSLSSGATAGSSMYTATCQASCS

For `CC[C@H](C)[C@H](NC(=O)[C@H](CC(C)C)NC(=O)[C@H](Cc1c[nH]c2ccccc12)NC(=O)[C@H](CCC(N)=O)NC(=O)[C@@H](NC(=O)[C@H](Cc1ccccc1)NC(=O)[C@H](C)NC(=O)[C@H](CCCCNC(=O)COCCOCCNC(=O)COCCOCCNC(=O)CC[C@H](NC(=O)CCCCCCCCCCCCCCCCCCC(=O)O)C(=O)O)NC(=O)[C@H](CCC(N)=O)NC(=O)[C@H](C)NC(=O)[C@@H](NC(=O)[C@H](CCCCN)NC(=O)[C@H](CC(=O)O)NC(=O)[C@H](CC(C)C)NC(=O)C(C)(C)NC(=O)[C@@H](NC(=O)[C@H](CO)NC(=O)[C@H](Cc1ccc(O)cc1)NC(=O)[C@H](CC(=O)O)NC(=O)[C@H](CO)NC(=O)[C@@H](NC(=O)[C@H](Cc1ccccc1)NC(=O)[C@@H](NC(=O)CNC(=O)[C@H](CCC(=O)O)NC(=O)CCNC(=O)C(C)(C)c1cc(C)cc(F)c1)[C@@H](C)O)[C@@H](C)O)[C@@H](C)CC)[C@@H](C)CC)C(C)C)C(=O)N[C@@H](C)C(=O)NCC(=O)NCC(=O)N1CCC[C@H]1C(=O)N[C@@H](CO)C(=O)N[C@@H](CO)C(=O)NCC(=O)N[C@@H](C)C(=O)N1CCC[C@H]1C(=O)N1CCC[C@H]1C(=O)N1CCC[C@H]1C(=O)N[C@@H](CO)C(N)=O` [Compound 144] ({X58-βAla}-EGTFTSDYSI[Aib]LDKIAQK([AEEA-AEEA-γGlu-C20 diacid])AFVQWLIAGGPSSGAPPPS-NH2), the EC50 (GLP-1 receptor [1]) was under 0.1 nM, the Emax (GLP-1 receptor [1]) was 99% and the EC50 (GIP receptor [2]) was 1 to 10 nM. The Emax (GIP receptor [2]) was 103%, the EC50 (GIP receptor [3]) was over 1000 nM and the EC50 (GLP-1 receptor [4]) was over 1000 nM.

Compound `CC[C@H](C)[C@H](NC(=O)[C@H](CO)NC(=O)[C@H](Cc1ccc(O)cc1)NC(=O)[C@H](CC(=O)O)NC(=O)[C@H](CO)NC(=O)[C@@H](NC(=O)[C@H](Cc1ccccc1)NC(=O)[C@@H](NC(=O)CNC(=O)[C@H](CCC(=O)O)NC(=O)CCNC(=O)C1(c2ccc(F)cc2F)CCCC1)[C@@H](C)O)[C@@H](C)O)C(=O)N[C@@H](Cc1ccc(O)cc1)C(=O)N[C@@H](CC(C)C)C(=O)N[C@@H](CC(=O)O)C(=O)N[C@@H](CCCCN)C(=O)N[C@@H](CCC(N)=O)C(=O)N[C@@H](C)C(=O)N[C@@H](C)C(=O)NC(C)(C)C(=O)N[C@@H](CCC(=O)O)C(=O)N[C@@H](Cc1ccccc1)C(=O)N[C@H](C(=O)N[C@@H](CC(N)=O)C(=O)N[C@@H](Cc1c[nH]c2ccccc12)C(=O)N[C@@H](CC(C)C)C(=O)N[C@@H](CC(C)C)C(=O)N[C@@H](C)C(=O)NCC(=O)NCC(=O)N1CCC[C@H]1C(=O)N[C@@H](CO)C(=O)N[C@@H](CO)C(=O)NCC(=O)N[C@@H](C)C(=O)N1CCC[C@H]1C(=O)N1CCC[C@H]1C(=O)N1CCC[C@H]1C(=O)N[C@@H](CO)C(=O)N[C@@H](CCCCNC(=O)COCCOCCNC(=O)COCCOCCNC(=O)CC[C@H](NC(=O)CCCCCCCCCCCCCCCCCCC(=O)O)C(=O)O)C(N)=O)C(C)C` [Compound 145] has an EC50 (GLP-1 receptor [1]) of 1 to 10 nM, an Emax (GLP-1 receptor [1]) of 97% and an EC50 (GIP receptor [2]) of 1 to 10 nM. It also gave an Emax (GIP receptor [2]) of 102%, an EC50 (GIP receptor [3]) of over 1000 nM and an EC50 (GLP-1 receptor [4]) of over 1000 nM.

Compound `CC[C@H](C)[C@H](NC(=O)[C@H](CC(C)C)NC(=O)[C@H](Cc1c[nH]c2ccccc12)NC(=O)[C@H](CCC(N)=O)NC(=O)[C@@H](NC(=O)[C@H](Cc1ccccc1)NC(=O)[C@H](C)NC(=O)[C@H](CCCCNC(=O)COCCOCCNC(=O)COCCOCCNC(=O)CC[C@H](NC(=O)CCCCCCCCCCCCCCCCCCC(=O)O)C(=O)O)NC(=O)[C@H](CCC(N)=O)NC(=O)[C@H](C)NC(=O)[C@@H](NC(=O)[C@H](CCCCN)NC(=O)[C@H](CC(=O)O)NC(=O)[C@H](CC(C)C)NC(=O)C(C)(C)NC(=O)[C@@H](NC(=O)[C@H](CO)NC(=O)[C@H](Cc1ccc(O)cc1)NC(=O)[C@H](CC(=O)O)NC(=O)[C@H](CO)NC(=O)[C@@H](NC(=O)[C@H](Cc1ccccc1)NC(=O)[C@@H](NC(=O)CNC(=O)[C@H](CCC(=O)O)NC(=O)CCNC(=O)C(C)(C)c1cc(F)ccc1F)[C@@H](C)O)[C@@H](C)O)[C@@H](C)CC)[C@@H](C)CC)C(C)C)C(=O)N[C@@H](C)C(=O)NCC(=O)NCC(=O)N1CCC[C@H]1C(=O)N[C@@H](CO)C(=O)N[C@@H](CO)C(=O)NCC(=O)N[C@@H](C)C(=O)N1CCC[C@H]1C(=O)N1CCC[C@H]1C(=O)N1CCC[C@H]1C(=O)N[C@@H](CO)C(N)=O` [Compound 146] ({X37-βAla}-EGTFTSDYSI[Aib]LDKIAQK([AEEA-AEEA-γGlu-C20 diacid])AFVQWLIAGGPSSGAPPPS-NH2) has an EC50 (GLP-1 receptor [1]) of 0.1 to 1 nM, an Emax (GLP-1 receptor [1]) of 102% and an EC50 (GIP receptor [2]) of 1 to 10 nM. For the same compound, the Emax (GIP receptor [2]) was 104%, the EC50 (GIP receptor [3]) was under 1000 nM and the EC50 (GLP-1 receptor [4]) was over 1000 nM.

Compound `CC[C@H](C)[C@H](NC(=O)[C@H](CC(C)C)NC(=O)[C@H](Cc1c[nH]c2ccccc12)NC(=O)[C@H](CCC(N)=O)NC(=O)[C@@H](NC(=O)[C@H](Cc1ccccc1)NC(=O)[C@H](C)NC(=O)[C@H](CCCCNC(=O)COCCOCCNC(=O)COCCOCCNC(=O)CC[C@H](NC(=O)CCCCCCCCCCCCCCCCCCC(=O)O)C(=O)O)NC(=O)[C@H](CCC(N)=O)NC(=O)[C@H](C)NC(=O)[C@@H](NC(=O)[C@H](CCCCN)NC(=O)[C@H](CC(=O)O)NC(=O)[C@H](CC(C)C)NC(=O)C(C)(C)NC(=O)[C@@H](NC(=O)[C@H](CO)NC(=O)[C@H](Cc1ccc(O)cc1)NC(=O)[C@H](CC(=O)O)NC(=O)[C@H](CO)NC(=O)[C@@H](NC(=O)[C@H](Cc1ccccc1)NC(=O)[C@@H](NC(=O)CNC(=O)[C@H](CCC(=O)O)NC(=O)CCNC(=O)C(C)(C)c1cccc(F)c1F)[C@@H](C)O)[C@@H](C)O)[C@@H](C)CC)[C@@H](C)CC)C(C)C)C(=O)N[C@@H](C)C(=O)NCC(=O)NCC(=O)N1CCC[C@H]1C(=O)N[C@@H](CO)C(=O)N[C@@H](CO)C(=O)NCC(=O)N[C@@H](C)C(=O)N1CCC[C@H]1C(=O)N1CCC[C@H]1C(=O)N1CCC[C@H]1C(=O)N[C@@H](CO)C(N)=O` [Compound 147] ({X13-βAla}-EGTFTSDYSI[Aib]LDKIAQK([AEEA-AEEA-γGlu-C20 diacid])AFVQWLIAGGPSSGAPPPS-NH2) has an EC50 (GLP-1 receptor [1]) of 0.1 to 1 nM, an Emax (GLP-1 receptor [1]) of 99% and an EC50 (GIP receptor [2]) of 0.1 to 1 nM. The Emax (GIP receptor [2]) was 102%, the EC50 (GIP receptor [3]) was under 1000 nM and the EC50 (GLP-1 receptor [4]) was over 1000 nM.

`CC[C@H](CNC(=O)C(C)(C)c1cc(F)cc(C#N)c1)C(=O)N[C@@H](CCC(=O)O)C(=O)NCC(=O)N[C@H](C(=O)N[C@@H](Cc1ccccc1)C(=O)N[C@H](C(=O)N[C@@H](CO)C(=O)N[C@@H](CC(=O)O)C(=O)N[C@@H](Cc1ccc(O)cc1)C(=O)N[C@@H](CO)C(=O)N[C@H](C(=O)NC(C)(C)C(=O)N[C@@H](CC(C)C)C(=O)N[C@@H](CC(=O)O)C(=O)N[C@@H](CCCCN)C(=O)N[C@H](C(=O)N[C@@H](C)C(=O)N[C@@H](CCC(N)=O)C(=O)N[C@@H](CCCCNC(=O)COCCOCCNC(=O)COCCOCCNC(=O)CC[C@H](NC(=O)CCCCCCCCCCCCCCCCCCC(=O)O)C(=O)O)C(=O)N[C@@H](C)C(=O)N[C@@H](Cc1ccccc1)C(=O)N[C@H](C(=O)N[C@@H](CCC(N)=O)C(=O)N[C@@H](Cc1c[nH]c2ccccc12)C(=O)N[C@@H](CC(C)C)C(=O)N[C@H](C(=O)N[C@@H](C)C(=O)NCC(=O)NCC(=O)N1CCC[C@H]1C(=O)N[C@@H](CO)C(=O)N[C@@H](CO)C(=O)NCC(=O)N[C@@H](C)C(=O)N1CCC[C@H]1C(=O)N1CCC[C@H]1C(=O)N1CCC[C@H]1C(=O)N[C@@H](CO)C(N)=O)[C@@H](C)CC)C(C)C)[C@@H](C)CC)[C@@H](C)CC)[C@@H](C)O)[C@@H](C)O` [Compound 148] ({Isobutyryl(2-(3-CN-5-F-Ph))}-[X70]EGTFTSDYSI[Aib]LDKIAQK([AEEA-AEEA-γGlu-C20 diacid])AFVQWLIAGGPSSGAPPPS-NH2) showed an EC50 (GLP-1 receptor [1]) of 1 to 10 nM, an Emax (GLP-1 receptor [1]) of 99% and an EC50 (GIP receptor [2]) of 10 to 100 nM. For the same compound, the Emax (GIP receptor [2]) was 101%, the EC50 (GIP receptor [3]) was over 1000 nM and the EC50 (GLP-1 receptor [4]) was over 1000 nM.
